# “Also recorded” adds a separate entry of the source.
# Key:
# [1] = tested on: BCCI injury to the medial frontal cortex; test: Morris Water Maze after bilateral controlled cortical impact (BCCI) injury in rats; assay type: in vivo, Sprague Dawley rats
# Description: Bilateral controlled cortical impact (BCCI) injury to the medial frontal cortex (MFC) of male Sprague Dawley rats was induced by a cortical contusion device. After CCI any cortical surface hemorrhaging was controlled, and the fascia and scalp were sutured. Sham-operated rats were anesthetized, mounted in the stereotaxic apparatus, and a craniotomy was performed.
# Compound 10.2, 0.4, and 0.6 mg/mL was suspended in vehicle (0.6% w/v Pluronic® F-68 and 0.6% w/v PVP K-29/32 in water) and administered p.o at a concentration of 10 mL/kg, 16 h before injury and 2 h after injury, and administrations were continued for 4 days. Control rats received equivalent injections of the vehicle for Compound 1, at the same time points.
# The Morris Water Maze (MWM) test is a spatial navigation task that measures learning and memory in rodents using visual cues. Subjects learn over the course of days to find a hidden platform. A MWM test was conducted two weeks after injury. Male Sprague Dawley rats were allowed to swim in the pool until they reached the platform located in the southwest quadrant of a tank, or until 90 seconds had elapsed. Behavior was tracked by a video camera hanging from above the pool and recorded and analyzed using video track software (ANY-maze).
# CRM1 = target: T1, CRM1 (Homo sapiens, UniProt O14980); test: RevGFP assay: inhibition of CRM1 mediated nuclear export; assay type: cell-based; conditions: U2OS-RevGFP cells, ~1 hr with compound; read-out: Rev Export [IC50]
# T1 construct: endogenous in cells; host or cells: U2OS-RevGFP cells
# T1 sequence (O14980 whole entry): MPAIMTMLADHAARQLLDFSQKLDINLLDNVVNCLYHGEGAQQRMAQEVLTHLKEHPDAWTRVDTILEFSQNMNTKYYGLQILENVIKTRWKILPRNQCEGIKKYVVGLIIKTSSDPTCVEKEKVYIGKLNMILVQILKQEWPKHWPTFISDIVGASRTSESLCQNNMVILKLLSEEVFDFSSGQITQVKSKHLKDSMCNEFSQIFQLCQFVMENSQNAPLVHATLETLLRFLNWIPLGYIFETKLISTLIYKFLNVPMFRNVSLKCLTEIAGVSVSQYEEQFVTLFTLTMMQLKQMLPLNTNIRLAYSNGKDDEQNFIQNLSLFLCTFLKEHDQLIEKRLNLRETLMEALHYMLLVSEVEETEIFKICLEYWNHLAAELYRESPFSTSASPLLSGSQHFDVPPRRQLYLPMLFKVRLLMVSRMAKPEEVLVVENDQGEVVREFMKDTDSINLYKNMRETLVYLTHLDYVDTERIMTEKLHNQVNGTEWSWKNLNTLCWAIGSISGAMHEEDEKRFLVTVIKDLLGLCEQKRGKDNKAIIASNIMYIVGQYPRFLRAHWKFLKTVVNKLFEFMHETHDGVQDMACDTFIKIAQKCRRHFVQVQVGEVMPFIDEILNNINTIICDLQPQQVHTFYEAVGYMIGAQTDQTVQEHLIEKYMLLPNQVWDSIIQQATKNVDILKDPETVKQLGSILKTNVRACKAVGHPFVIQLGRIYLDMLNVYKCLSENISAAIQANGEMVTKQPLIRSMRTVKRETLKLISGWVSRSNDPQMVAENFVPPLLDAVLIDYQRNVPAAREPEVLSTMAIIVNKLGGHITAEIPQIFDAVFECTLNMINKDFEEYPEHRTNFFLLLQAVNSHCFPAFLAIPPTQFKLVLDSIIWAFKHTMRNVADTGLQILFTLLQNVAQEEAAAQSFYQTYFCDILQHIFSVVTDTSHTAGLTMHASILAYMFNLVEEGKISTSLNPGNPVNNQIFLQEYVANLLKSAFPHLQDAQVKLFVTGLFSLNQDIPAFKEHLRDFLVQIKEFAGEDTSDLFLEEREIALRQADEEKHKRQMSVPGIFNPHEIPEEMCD
# Description: The inhibition of CRM1 mediated nuclear export by compounds of the invention was determined. The inhibitory activity of compounds for the CRM1 protein was determined in the RevGFP assay.
# Experimental protocol: Rev is a protein from human immunodeficiency virus type 1 (HIV-1) and contains a nuclear export signal (NES) in its C-terminal domain and a nuclear localization signal (NLS) in its N-terminal domain. Nuclear export of Rev protein is dependent on the classical NES/CRM1 pathway (Neville et al, 1997, Kau et al, 2003). Nuclear accumulation of Rev is observed in cells treated with specific inhibitors of CRM1, such as LMB (Kau et al, 2003). In this assay, U2OS-RevGFP cells are seeded onto clear-bottom, black, 384-well plates the day before the experiment. Compounds are serially diluted 1:2 starting from 40 μM in a separate 384-well plate in DMEM, and then transferred onto cells. Cells are incubated with compound for ˜1 hr before fixation with 3.7% formaldehyde and nuclei staining with Hoechst 33258. The amount of GFP in cell nuclei was measured and compound IC50s were determined (Kau et al, 2003).
# IMQ-induced psoriasis = test: Imiquimod (IMQ)-induced dermal inflammation/psoriasis model (Study 1); assay type: in vivo, BALB/c mice; conditions: Compound 2 1 μM
# Excerpt: Forty (40) male BALB/c mice aged 6 to 8 weeks were used with a pretreatment body weight of 22 to 30 g. The BALB/c mice were randomized into four (4) groups of 10 mice per group. A small area (about 2×2 cm^2) of skin on the dorsum of all the animals was neatly shaved. Group-I animals served as Naïve animals. Psoriasis was induced in Groups II to IV [Group II (IMQ; vehicle), Group III (IMQ; […] Animals were observed daily for a period of 13 days for any treatment-related symptoms. The daily observations included body weight, feed intake, skin thickening, scaling, folding, erythema, nasal discharge, movement, respiration, hair, distended abdomen, skin condition, fur, mucous membrane, presence or absence of secretions, eye condition, tail elevation, motor activity, posture and gait. Severity of damage to the dorsal portion of the skin was assessed by assigning erythema, scaling, folding and skin thickening scores based on external observations of skin, according to rubric in Table 9. […] Compound 2 was prepared by dissolving 1.47 mg of Compound 2 in 300 μL of 100% DMSO.
# [2] = tested on: collagen-induced arthritis; test: Collagen-Induced Arthritis (CIA) Study No. 2; assay type: in vivo, Lewis rats
# Description: To further investigate the effect of the compounds described herein on inflammation biomarkers, a second CIA model was initiated. In this model, the groups were designated as group A (naïve), group B (model; vehicle-treated), group C (Compound 2 at 5 mg/kg QoD). The rats in groups B and C were immunized intradermally with bovine Type II collagen in IFA on day 0, and a booster injection was given on day 7. Compound 2 was orally administered to rats with CIA after the onset of arthritis (Day 11). CIA development was evaluated via macroscopic scoring and measurements of paw swelling. This was assessed every day for the first 5 days after sensitization (day 7), and then twice per week (Monday and Thursday) until Day 28 using the clinical scoring system described in Table 7 above. In addition, ELISAs for CD45, CRP, CCL2/MCP-1, RANKL, TNF-α, IL1-β, IL-6, IL-8, IL-15, IL-17, and measurements for cathepsin K and elastase were performed 4 days (Day 15 of the study) and 10 days (Day 21 of the study—peak for the disease) after compound treatment and at the very end of the study (Day 28) on all group animals. Additionally, on the last day of the study (Day 28), a few representative animals from each group were subjected to three-dimensional micro-tomodensitometry of calcaneus, and bone erosion was quantified.
Structure (SMILES),days after injury with significant effect on latency ([1]; 4 mg/kg p.o.),"latency to find the hidden platform (MWM acquisition) compared to vehicle-treated BCCI-injured rats ([1]; 2, 4 and 6 mg/kg p.o.)",IC50 (CRM1),"body weight, food and water intake (IMQ-induced psoriasis)",IMQ-induced disease manifestation / disease activity index (IMQ-induced psoriasis; daily Day 1 to Day 13),joint swelling and clinical scores compared to vehicle-treated rats ([2]; 5 mg/kg QoD orally from Day 11),"bone erosion in the rear paws (micro CT, BMD) ([2]; 5 mg/kg QoD, Day 28)"
"CC(C)(C)C(=O)NNC(=O)/C=C\n1cnc(-c2cc(C(F)(F)F)cc(C(F)(F)F)c2)n1 [Compound 1, (Z)-3-(3-(3,5-bis(trifluoromethyl)phenyl)-1H-1,2,4-triazol-1-yl)-N′-pivaloylacrylohydrazide]",18,dose dependent decrease in the latency to find the hidden platform,,,,,
"O=C(/C=C\n1cnc(-c2cc(C(F)(F)F)cc(C(F)(F)F)c2)n1)NNC(=O)CN1CCOCC1 [Compound 2, (Z)-3-(3-(3,5-bis(trifluoromethyl)phenyl)-1H-1,2,4-triazol-1-yl)-N′-(2-morpholinoacetyl)acrylohydrazide]",,,< 1 µM,"without adversely affecting body weight, food and water intake",diminished IMQ-induced disease manifestation; also recorded: reduction in disease activity index in comparison to the vehicle treated group,significantly reduced joint swelling,significantly reduced bone erosion in the rear paws; also recorded: comparable to that of naïve animals

# Source: patent US9096543B2, “Nuclear transport modulators and uses thereof” (Karyopharm Therapeutics Inc., priority 2012, dated 2015)
